Data on two compounds can be found in ChEMBL document CHEMBL5356989, “Impact of multiple H/D replacements on the physicochemical properties of flurbiprofen” (RSC Med Chem, 2023).

≈ marks a conversion by molar mass, not a printed value.

Data set [1] is described as follows: Cmax in fasted Sprague Dawley rat at 10 mg/kg, po measured for 8 hrs by HPLC analysis. It counts as ADME, organism-based. On the set-up: dose 10 mg/kg, time 8 hrs, route po. Particulars: in vivo.
Data set [2] in a line: Apparent permeability of compound by PAMPA assay. The format is ADME. (PAMPA measures passive passage across an artificial lipid membrane.)
A short description of data set [3]: AUC (0 to 8 hrs) in fasted Sprague Dawley rat at 10 mg/kg, po measured for 8 hrs by HPLC analysis. The format is ADME, organism-based. On the set-up: dose 10 mg/kg, time 8 hrs, route po. As to conditions: in vivo.
The nature of data set [4]: Half life in Sprague Dawley rat at 1 mg/kg, iv measured for 8 hrs by HPLC analysis. Particulars: in vivo. The format is ADME, organism-based.
The target in data set [5] is T1, Cytochrome P450 2C9 (Homo sapiens, UniProt P11712). Briefly: Drug metabolism assessed as recombinant CYP2C9 (unknown origin)-mediated 4'-hydroxy FP metabolite formation at 1 to 5 uM incubated for 10 mins in presence of NADPH by LC-MS analysis. As to conditions: recombinant enzyme, dose 1-5 µM. The format is ADME.
T1 sequence (P11712 whole entry): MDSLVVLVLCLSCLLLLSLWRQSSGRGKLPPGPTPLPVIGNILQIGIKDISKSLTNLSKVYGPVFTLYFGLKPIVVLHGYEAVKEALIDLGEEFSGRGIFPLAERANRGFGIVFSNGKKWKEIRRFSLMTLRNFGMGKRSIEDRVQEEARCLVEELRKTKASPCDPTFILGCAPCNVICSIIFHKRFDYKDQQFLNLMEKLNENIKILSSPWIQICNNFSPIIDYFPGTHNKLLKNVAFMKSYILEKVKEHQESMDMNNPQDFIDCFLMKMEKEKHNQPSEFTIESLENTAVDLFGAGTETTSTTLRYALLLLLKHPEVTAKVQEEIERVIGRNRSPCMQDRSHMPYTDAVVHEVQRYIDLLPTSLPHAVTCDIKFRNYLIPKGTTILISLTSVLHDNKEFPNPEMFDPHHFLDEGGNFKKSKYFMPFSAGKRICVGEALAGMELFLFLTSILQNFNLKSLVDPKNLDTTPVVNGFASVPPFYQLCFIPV
The nature of data set [6]: Solubility in distilled water at 1 mg measured for 28 hrs by HPLC analysis. It counts as physicochemical.
A short description of data set [7]: Oral bioavailability in fasted Sprague Dawley rat at 10 mg/kg measured for 8 hrs by HPLC analysis. It counts as ADME, organism-based. Particulars: in vivo.
Data set [8] in a line: Solubility in PBS at pH 6.0 at 1 mg measured for 28 hrs by HPLC analysis. It counts as physicochemical. Particulars: PBS pH 6.0, pH 6.
Data set [9] can be described thus: Solubility in HCl at pH 1.2 at 1 mg measured for 28 hrs by HPLC analysis. It counts as physicochemical. As to conditions: HCl pH 1.2, pH 1.2.
A short description of data set [10]: Volume of distribution at steady state in Sprague Dawley rat at 1 mg/kg, iv measured for 8 hrs by HPLC analysis. The format is ADME, organism-based. As to conditions: in vivo, read-out: Vdss.
Data set [11] in a line: AUC (0 to 8 hrs) in Sprague Dawley rat at 1 mg/kg, iv measured for 8 hrs by HPLC analysis. It counts as ADME, organism-based. On the set-up: dose 1 mg/kg, time 8 hrs, route iv. Particulars: in vivo.
Data set [12] is described as follows: Lipophilicity, log D of compound in n-octanol/PBS at pH 7.4 at 10 mg measured for 48 hrs by HPLC analysis. It counts as physicochemical.
Data set [13] can be described thus: Tmax in fasted Sprague Dawley rat at 10 mg/kg, po measured for 8 hrs by HPLC analysis. It counts as ADME, organism-based. Particulars: in vivo.
Data set [14] in a line: Permeability of compound assessed as drug flux measured for 2 to 6 hrs by PAMPA assay. The format is ADME. As to conditions: time 2-6 hrs.
Data set [15] in a line: Clearance in Sprague Dawley rat at 1 mg/kg, iv measured for 8 hrs by HPLC analysis. The format is ADME, organism-based. Particulars: in vivo.
Data set [16] has as its target T1, Cytochrome P450 2C9. Description: Drug metabolism assessed as recombinant CYP2C9 (unknown origin)-mediated 4'-hydroxyl FP-d7 metabolite formation at 1 to 5 uM incubated for 10 mins in presence of NADPH by LC-MS analysis. Particulars: recombinant enzyme, dose 1-5 µM. The format is ADME.
For data set [17], the target named is T1, Cytochrome P450 2C9. Briefly: Drug metabolism assessed as recombinant CYP2C9 (unknown origin)-mediated 4'-hydroxyl FP-d7 metabolite formation by measuring Vmax per nmol of CYP at 1 to 5 uM incubated for 10 mins in presence of NADPH by LC-MS analysis. It counts as ADME. As to conditions: recombinant enzyme, dose 1-5 µM.
Data set [18] has as its target T1, Cytochrome P450 2C9. Briefly: Drug metabolism assessed as recombinant CYP2C9 (unknown origin)-mediated 4'-hydroxyl FP-d7 metabolite formation by measuring Vmax/Km per nmol of CYP at 1 to 5 uM incubated for 10 mins in presence of NADPH by LC-MS analysis. As to conditions: recombinant enzyme, dose 1-5 µM. The format is ADME.

A word on the Cmax: it is the highest concentration seen after dosing. As usually defined, the Papp is a coefficient for how fast a substance crosses the barrier. For orientation: AUC(0-t) means the area under the concentration-time curve up to a stated or last time point. The half-life is how long it takes for the measured level to halve. Read a high half-life as slow loss. In general, solubility refers to the dissolved amount per volume that the medium holds. Read a low solubility as little dissolved substance. The bioavailability is dose-corrected exposure relative to a reference, in per cent. A high value points to much systemic uptake. A word on the logD: it is lipophilicity at a set pH, counting ionised and neutral species. The Tmax is the time at which the peak concentration occurs. In general, clearance refers to the rate of elimination divided by the concentration. The compound `CC(C(=O)O)c1ccc(-c2ccccc2)c(F)c1` (configuration not stated) [FLURBIPROFEN] returned a Cmax in data set [1] of 29600 ng/mL. In data set [2], the apparent permeability coefficient (Papp) is 5.24 ×10⁻⁶ cm/s. Moreover, the area under the curve AUC(0-t) at 8 h in data set [3] amounted to 130000 ng·h/mL; in [11], 19500 ng·h/mL. This compound had a half-life in [4] of 34.2 min. On Cytochrome P450 2C9 [5], the Drug metabolism entry is “Metabolite_Detected”. Also, the solubility at 28 h is 24.1 µg/mL (≈ 98.7 µM) in [6], 810 µg/mL (≈ 3310 µM) in data set [8] and 5.9 µg/mL (≈ 24.2 µM) in data set [9]. In addition, the bioavailability in data set [7] turned out to be 66.9%. Also, in data set [10], the Vd turned out to be 0.0204 L/kg. In [12], this compound registered a log distribution coefficient (logD) at 48 h of 0.9. The time of peak concentration (Tmax) in data set [13] was 30 min. Moreover, in data set [14], the Drug transport was determined as 4.53 µg/h. In data set [15], this compound gave a clearance of 0.216 mL/min/kg.
One may read the Vmax as the rate approached at saturating substrate. Turning to `[2H]c1c([2H])c([2H])c(-c2c([2H])c([2H])c(C(C)C(=O)O)c([2H])c2F)c([2H])c1[2H]` (configuration not stated), in [1], the peak level (Cmax) was 33000 ng/mL. Moreover, the Papp in [2] worked out at 5.32 ×10⁻⁶ cm/s. For the same compound, the exposure AUC(0-t) at 8 h in data set [3] is 144000 ng·h/mL; in data set [11] it was 19200 ng·h/mL. The half-life in data set [4] is 33 min. Also, the Drug metabolism entry on Cytochrome P450 2C9 [16] is recorded as “Metabolite_Detected”. The solubility at 28 h in data set [6] is 32.7 µg/mL (≈ 129 µM); in data set [8] it was 918 µg/mL (≈ 3640 µM); in data set [9], 12.7 µg/mL (≈ 50.5 µM). This compound also registered a bioavailability in data set [7] of 75.3%. Further, at Cytochrome P450 2C9 [17], the Vmax was 0.91 pmol/min. The Vd in [10] came to 0.0207 L/kg. The compound also gave a log distribution coefficient (logD) at 48 h in data set [12] of 0.87. In addition, in [13], the time to peak (Tmax) was 60 min. The Vmax/Km at Cytochrome P450 2C9 [18] was found to be 1.24 µL/min. Further, the Drug transport in data set [14] amounted to 4.6 µg/h. The compound further had a clearance in data set [15] of 0.217 mL/min/kg.
